Assay [1] has as its system porcine basilar arteries. Briefly: vascular function assay, porcine basilar arteries pre-contracted with PGF2α. As to the method: The vascular function assay (FIG. 7E) was performed using fresh porcine basilar arteries obtained from a local abattoir (n=12). Vessels were pre stretched to reach 8 the optimal passive pretension as previously published (Hugelshofer et al., 2020). Then, 10 μM prostaglandin F2α (PGF2α; Sigma, Buchs, Switzerland) was used as a pre-contracting agent. In order to determine the maximum possible tension in absence of endogenous NO, L-N5-(1-Iminoethyl) ornithine hydrochloride (L-NIO; Sigma-Aldrich, Saint Louis, US-MO) at a concentration of 10 μM was added at the end of the experiment. The recorded tension was normalized to the individual NO reserve capacity of the respective vessel, i.e. the baseline tension after addition of PGF2α (0%) and the tension after addition of L-NIO at the end of the experiment (100%) (FIG. 7F). Damaged vessels with a continuous loss in tension over the duration of the experiment, resulting in a PGF2α max/L-NIO max ratio below 0.7, were excluded from the analysis (FIG. 7F). A first series of experiments was conducted to evaluate the vasoconstrictive potential of the patient CSF in the high-risk phase for SAH-SBI after aSAH and to assess the specific role of oxyHb in this process. […] In a second series of experiments, the influence of an increasing exposure to Hb on the vascular tension was assessed. […]

The target of assay [2] is T1, CSF-Hb (Homo sapiens, UniProt P68871+P69905).
T1 construct: from tissue; host or cells: cerebrospinal fluid of patients after aSAH (high-risk phase, week 0.5-2)
The experiment in a line: oxidative potential of patient CSF after aSAH (TBARS, MDA formation) with addition of Hp or hemopexin. The format is biochemical. The following applies: added at equimolar concentration, patient CSF of high risk phase week 0.5-2, FIG. 5D. The procedure:
Hb used in ex vivo experiments was purified from expired human blood concentrates as previously described (Elmer et al., 2009). Hb concentrations were determined by spectral deconvolution as described above and are given as molar concentrations of total heme (1 M Hb tetramer is equivalent to 4 M heme). Hx was used in equimolar concentration to the concentration of heme measured in the test sample. For all Hb used in these studies, the fraction of ferrous oxyHb (HbFe2+O2) was always greater than 98% as determined by spectrophotometry. Purified haptoglobin (phenotype 1-1) and hemopexin from human plasma was obtained from CSL Behring.
The oxidative potential of CSF samples was quantified by measuring the formation of malondialdehyde (MDA) as the final product of lipid peroxidation after incubation with a well-defined reconstituted lipoprotein (rLP, obtained from CSL Behring, Bern, Switzerland) (FIG. 7G). Using a 96-well plate, 25 μL CSF were mixed with 5 μL rLP (3 mg/mL) and incubated at 37° C. for 24 hours. Subsequently, the concentration of MDA was measured using a thiobarbituric acid reactive substance (TBARS) assay. In short 125 μL of 750 mM trichloroacetic acid in 1 M HCl was added to the samples, followed by short vortexing and subsequent addition of 100 μL 25 mM 2-thiobarbituric acid in 1 M NaOH.
After an incubation period at 80° for 60 min, the TBARS in the supernatant were quantified. For absolute quantification of MDA, the absorption at 600 nm was subtracted from the absorption at 532 nm and the concentration was calculated with the molar extinction 9 coefficient of […]. To achieve a more sensitive but relative quantification, the fluorescence emission was measured at 550 nm, using 510 nm as excitation wavelength.

For assay [3] the following is noted: read-out: ability to bind heme with high affinity (Kd); cited from earlier work.
Assay [4] is described as follows: formation of heme:Hx complexes in the CSF. Particulars: cell-free heme within the subarachnoid space.
Assay [5] deals with C57BL/6J mice. Briefly: striatal injection model, behavioural testing (open field, rotarod, beam walk). Particulars: 24 hours after striatal injection of 10 μL, 1 mM; n=6 per group; FIG. 12. In kind it is in vivo. From the text: (§1) Wild-type male C57BL/6J mice (10-12 weeks) were obtained from Charles River (Sulzfeld, Germany) and maintained at the animal facility of the University of Zurich (LASC) and treated in accordance with the guidelines of the Swiss Federal Veterinary Office.
Mice were anesthetized with isoflurane (4-5% for induction, 1-2% for maintenance; Baxter Healthcare Co. Deerfield, IL, USA) evaporated in 100% oxygen. Throughout the surgical procedure, body temperature was monitored with a rectal probe and maintained constant with the use of an electronic thermostat-controlled warming blanket. Anesthetized mice were placed in a motorized stereotaxic frame (Stoelting, Dublin, Ireland) and a 1 cm long midline skin incision was made. After removal of the soft tissue covering the skull, the frame referenced to bregma and a small burrhole was drilled above the entry point for the target. Then a 33G needle was slowly advanced (0.1 mm/s) into the striatum (bregma coordinates: 2 mm ML, 0.5 mm AP, 3.5 mm DV) followed by injection of 10 μL heme-albumin (1 mM), haptoglobin (5 mM) (protein control group) or heme-hemopexin (1 mM) with an infusion rate of 100 nl/s. […] After the surgical procedure, the animals were placed in a heated wake up box and monitored until they were fully recovered and could be transferred back to their homecage.
The open field exploration tests were conducted in four identical square arenas (40×40×35 cm high) made of opaque acrylic glass, located in a testing room under diffused lighting (approximately 35 Ix as measured in the center of the arenas). […] The total distance moved during 10 minutes (in cm), beginning after a 5 minutes acclimatization phase was measured.
For the rotarod behavioural testing the mice are placed on a rotating cylinder and therefore forced to walk. […] The time until the mice fall off the cylinder is measured.
For discrete neurological deficits, mice were subjected to a beam walk test. […] During the assessment, the motor function was scored by two investigators blinded to treatment.
(In general: In the rotarod test animals must keep their balance on a rotating rod.)

The test system of assay [6] is C57BL/6J mice. Briefly: striatal injection model, MRI (T2, ASL, DWI). In kind it is in vivo. Particulars: for quantification of edema size and perfusion: 24, 48 and 72 hours after striatal injection, n=4 per group, FIG. 14; for radiological changes (T2, ADC map, ASL): 24 hours after striatal injection, FIG. 13.
Text: as §1
Mice were anesthetized with isoflurane (4-5% for induction, 1-2% for maintenance; Baxter Healthcare Co. Deerfield, IL, USA) evaporated in 100% oxygen. Throughout the surgical procedure, body temperature was monitored with a rectal probe and maintained constant with the use of an electronic thermostat-controlled warming blanket. Anesthetized mice were placed in a motorized stereotaxic frame (Stoelting, Dublin, Ireland) and a 1 cm long midline skin incision was made. After removal of the soft tissue covering the skull, the frame referenced to bregma and a small burrhole was drilled above the entry point for the target. Then a 33G needle was slowly advanced (0.1 mm/s) into the striatum (bregma coordinates: 2 mm ML, 0.5 mm AP, 3.5 mm DV) followed by injection of 10 μL heme-albumin (1 mM), haptoglobin (5 mM) (protein control group) or heme-hemopexin (1 mM) with an infusion rate of 100 nl/s. The needle was left in place for 5 minutes, then removed slowly and the skin incision was closed with a suture. After the surgical procedure, the animals were placed in a heated wake up box and monitored until they were fully recovered and could be transferred back to their homecage.
Mice were anesthetized with isoflurane (4-5% for induction, 1-2% for maintenance; Baxter Healthcare Co. Deerfield, IL, USA) evaporated in 100% oxygen. Throughout the imaging procedure, body temperature was monitored with a rectal probe and maintained constant with the use of a warming blanket and respiratory rate was recorded by plethysmography. Mice were placed into a 7 T small animal MRI scanner (Brucker, Germany). T2, ASL and DWI images were recorded according to a standardized protocol.

“Also recorded” adds a separate entry of the source.

T1 sequence (P69905 2-142 limits assumed): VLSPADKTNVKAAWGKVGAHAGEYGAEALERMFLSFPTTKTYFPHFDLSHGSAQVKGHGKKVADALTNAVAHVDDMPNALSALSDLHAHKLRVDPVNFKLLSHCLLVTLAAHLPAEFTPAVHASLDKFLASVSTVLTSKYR
T1 sequence (P68871 2-147 limits assumed): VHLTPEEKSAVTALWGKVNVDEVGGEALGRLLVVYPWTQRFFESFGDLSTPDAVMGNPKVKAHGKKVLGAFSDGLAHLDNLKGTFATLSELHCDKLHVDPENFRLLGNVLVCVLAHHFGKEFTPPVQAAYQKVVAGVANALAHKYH

“Hp1-1: Purified haptoglobin (phenotype 1-1) from human plasma obtained from CSL Behring”: the “contractile force of basilar arteries (anti-vasospastic effect)” value in assay [1] (Hb dose escalation with equimolar haptoglobin, repeated measures ANOVA p<0.001, FIG. 5C) is “significantly attenuated the contractile force”. In addition, the “MDA formation (lipid peroxidation)” value is “effectively attenuated MDA formation” in assay [2] and “partial inhibition” in assay [2] (listed as haptoglobin).

In the case of “oxyHb: Hb purified from expired human blood concentrates; fraction of ferrous oxyHb greater than 98% [reference compound]”, the “oxyHb concentration reaching maximum contraction” value in assay [1] (FIG. 4A) was 10^−5 M.

Take “hemopexin: Purified hemopexin from human plasma obtained from CSL Behring; heme-scavenger protein”: the Kd (in general, the constant that tells how readily two partners part at equilibrium) in assay [3] is under 1 pM. Besides, the “period of exposure sufficient to form detectable heme:Hx complexes in the CSF” value in assay [4] is on record as “at least 2 minutes”. Further, the “neurological function (open-field, rotarod, beamwalk testing)” value (“neurological function” for short) in assay [5] was “abrogates the heme-mediated impairment of neurological function”. In assay [2], the “MDA formation (lipid peroxidation)” value was “even stronger attenuation of MDA formation; also recorded: virtually blocked the formation of MDA; also recorded: surpassed the antioxidant function of haptoglobin”.

`C=CC1=C(C)c2cc3[n-]c(cc4[n-]c(cc5nc(cc1n2)C(C)=C5C=C)c(C)c4CCC(=O)O)c(CCC(=O)O)c3C.[Fe+2]` [heme]: in assay [6], the “quantification of edema size and perfusion” value is “formation of a cerebral edema and a regionally decreased perfusion”; the “radiological changes (T2, ADC map, ASL)” value is “perilesional edema, a diffusion restriction in the ADC map and a focal perfusion deficit”. Moreover, the “neurological function” value in assay [5] is on record as “impaired neurological function; also recorded: impaired neurobehavioral function”.

B1: heme:Hx: heme-hemopexin complex (1 mM) injected into striatum (protein, UniProt P02790 24-462, looked up)
Hemopexin: TPLPPTSAHGNVAEGETKPDPDVTERCSDGWSFDATTLDDNGTMLFFKGEFVWKSHKWDRELISERWKNFPSPVDAAFRQGHNSVFLIKGDKVWVYPPEKKEKGYPKLLQDEFPGIPSPLDAAVECHRGECQAEGVLFFQGDREWFWDLATGTMKERSWPAVGNCSSALRWLGRYYCFQGNQFLRFDPVRGEVPPRYPRDVRDYFMPCPGRGHGHRNGTGHGNSTHHGPEYMRCSPHLVLSALTSDNHGATYAFSGTHYWRLDTSRDGWHSWPIAHQWPQGPSAVDAAFSWEEKLYLVQGTQVYVFLTKGGYTLVSGYPKRLEKEVGTPHGIILDSVDAAFICPGSSRLHIMAGRRLWWLDLKSGAQATWTELPWPHEKVDGALCMEKSLGPNSCSANGPGLYLIHGPNLYCYSDVEKLNAAKALPQPQNVTSLLGCTH
modifications: heme complex
notes: heme-hemopexin complex (1 mM) injected into striatum
On to B1, for which the “quantification of edema size and perfusion” value in assay [6] is on record as “absent”. For the same molecule, the “radiological changes (T2, ADC map, ASL)” value in assay [6] (listed as heme:Hpx) was “only minor radiological changes; also recorded: largely absent”. The “neurological function” value in assay [5] was “no impairment in neurobehavioral activity”.

The values are drawn from patent US20250339492A1, “METHOD OF TREATING OR PREVENTING AN ADVERSE SECONDARY NEUROLOGICAL OUTCOME FOLLOWING A HAEMORRHAGIC STROKE” (CSL BEHRING AG, priority 2021, published 2025).
